Values of other authors as cited in patent publication US8821904B2, “Topical composition and use thereof for the prophylaxis and the treatment of defects connected to inflammatory dermopathies” (Skinius S.R.L., priority 2010, dated 2014).

Tested on: seborrhoeic eczema
Conditions: topically applied, after four weeks of treatment

## CC(=O)N1CCN(c2ccc(OCC3COC(Cn4ccnc4)(c4ccc(Cl)cc4Cl)O3)cc2)CC1 (stereo not shown) [ketoconazole]
  Improvement of seborrhoeic eczema, percentage of the cases: 75%
